Columns and labels:
[1] = tested on: antennae of housefly, sand fly, and mosquitoes Aedes aegypti, Anopheles gambiae, Anopheles stephensi; test: GC-EAD antennal responses to SPME samples of clove essential oil; details: component of clove essential oil SPME sample; response by one or more of the insects; FIG. 1
Procedure: The GC-EAD antennal response of a female housefly (Musca domestica), sand fly (Phlebotomus papatasi), and mosquitoes including the species Aedes aegypti, Anopheles gambiae, and Anopheles stephensi were tested with clove essential oil. FIG. 1 is a simultaneous recording of GC flame ionization detection (FID) and electroantennographic detection (EAD) of the insect antennae to solid phase microextraction (SPME: CAR/PDMS) samples of clove essential oil in a 20 ml glass vial for 20 sec.
The following procedures were employed to test the EAD response of an insect antenna to a repellent compound. The GC-EAD technique provides an efficient tool for screening behaviorally active repellents. Several synthetic mixtures of potential insect repellent candidates, mostly sesquiterpene hydrocarbons and derivatives, were analyzed in splitless mode using a Varian CP-3800 GC equipped with a polar column (Innowax; 1.0 μm film thickness, 30 m×0.53 mm ID; J & W Scientific), and a 1:1 effluent splitter that allowed simultaneous flame ionization detection (FID) and EAD of the separated volatile compounds. Helium was used as the carrier gas, and the injector temperature was 220° C. The column temperature was 50° C. for 2 min, rising to 240° C. at 10° C./min, then held for 10 min. The outlet for the EAD was held in a humidified air stream flowing at 0.5 liter/min. over an antennal preparation. A glass capillary indifferent electrode filled with Beadle-Ephrussi Ringer, and grounded via a silver wire, was inserted into the severed insect's head with the antennae. A similar recording electrode connected to a high-impedance DC amplifier with automatic baseline drift compensation was placed in contact with the distal end of one antenna (Zhang et al., Chemoecology, 10:69-80 (2000)). The antennal signals were stored and analyzed on a PC equipped with a serial IDAC interface box and the program EAD ver. 2.5 (Syntech, Hilversum, The Netherlands). The compound 1-octen-3-ol (known attractant for many flies and mosquitoes) was included in most of the synthetic mixtures, as a positive control. […]

[2] = tested on: Aedes Aegypti, Anopheles stephensi and the sand fly P. papatasi; test: Y-tube bioassay, statements pooled for the three species; format: in vivo, Aedes aegypti; Anopheles stephensi; Phlebotomus papatasi; details: clove oil ca. 10 mg/day, patchouli oil 15 mg/d, sesquiterpenes 1 to 35 mg/d release
Procedure: (§1) Aegypti and An. stephensi, and one species of sand fly, P. papatasi. Both the mosquitoes and the sand flies used in the study were from colonies maintained at the Walter Reed Army Institute of Research, Department of Entomology, Silver Spring, Md. This Y-tube bioassay system, equipped with CO2-enriched air (ca. 1 l/min) as an attractant, was made from three clear acrylic tubes (4″ diameter; 12″ length) with symmetrical 120° angles among the three tube arms; and a screen butterfly valve on the top part of the bottom releasing tube. These spatial repellency tests were carried out during 8:00 am-12:00 pm (photophase) time period for Ae. aegypti and 1:00-5:00 pm (shifted scotophase) time period for the species of night-flying mosquitoes and sand fly in a temperature and humidity controlled testing room (23-25° C. and 20-40% RH). Female mosquitoes or sand flies were stored at ˜25-26° C., 50-89% RH, 12:12 hr. (L/D), fed with 10% sucrose solution before testing. The candidate chemical (individual or mixture) dispenser and a blank control were placed in the upper left or right arm of the Y-tube before releasing 25-40, 6 to 10 day-old female mosquitoes (or 3 to 10 day-old sand flies) into the bottom tube via a small hole. After a 30-60 sec acclimation period, the butterfly screen valve (door) on the top of the bottom tube was opened. After 10 min., the valve was closed and the numbers of mosquitoes or sand flies in each arm (including the bottom tube) were counted. In order to minimize the position effect, the same experiment was repeated once with the treatment and blank control arms shifted using a new (clean) Y-tube olfactometer and a new batch of mosquitoes/sand flies. Data from these two replicates were pooled for χ2 goodness of fit test (df=1) between the treatment and blank control.

[3] = tested on: Anopheles stephensi; test: K&D module behavioral bioassay (topical repellency, biting); format: in vivo
Procedure: (§2) The bioassays were conducted with a six-cell in vitro K&D module system, as disclosed in Klun and Debboun, J. Med. Entomol. 37:177-181 (2000), loaded with an “artificial blood” (CPDA+ATP) solution.
(§3) Clove essential oil, patchouli oil, and EAD-active potential repellents, β-caryophyllene, isocaryophyllene, (+)-longifolene, and their 1:1:1 mixture, plus α-guaiene, caryophyllene oxide, and a β-caryophyllene ketone, were tested using the six-cell in vitro K&D module system (Klun and Debboun, J. Med. Entomol. 37:177-181 (2000)) loaded with an “artificial blood” (CPDA+ATP) solution on both Ae. aegypti and An. stephensi in a dose-response fashion. The K&D in vitro assay system has three components: (1) a Plexiglas™ 29.7 cm.×7.1 cm K&D module composed of six adjacent cells, each designed to hold mosquitoes and each having a rectangular 3×4 cm floor hole that is opened and closed by a sliding door; (2) a Plexiglas™ six-well 29.7 cm×7.1 cm water water-bath warmed (38° C.) reservoir with six 3×4 cm wells designed to match the sliding-door openings of the K&D module base and to contain 6 mL warmed “artificial blood” wells covered with a collagen membrane; and (3) a 29.7 cm×7.1 cm'0.4 cm Teflon® separator having six rectangular openings like the K&D module. The K&D module was connected to a constant temperature water circulator at 38° C. The cells were covered with an Edicol collagen membrane strip. Nylon organdy strips with ink cell patterns were numbered and randomly treated with […] of the tested chemical in ethanol (ethanol alone as blank control), plus DEET (ca. 10 μg/cm^2) as a positive control. This treated nylon organdy strip was placed on top of the collagen membrane. The upper section of the K & D module with the six cells each containing 5 mosquitoes (5-10 d old, starved for 24 hr before testing) was placed on top of the nylon strip. The doors to the cells were slid open so the mosquitoes could be free to feed on the “artificial blood” via the collagen membrane if they were hungry. The experiments were allowed to run for 3 minutes, and the number of mosquitoes feeding (biting) in each cell was recorded. After each experiment, the nylon and collagen strips were removed. The CPDA+ATP solution was removed and allowed to dry prior to starting the next experiment. The experiments on each chemical and each mosquito species were run three times before the bottom section with circulated water was cleaned prior to use again.

[4] = tested on: Aedes aegypti; test: as above; format: in vivo
Procedure: as §2, §3

[5] = tested on: antennae of housefly, sand fly, and mosquitoes (Aedes aegypti, Aedes increpitus, Anopheles gambiae); test: GC-EAD antennal responses to SPME samples of patchouli essential oil; details: component of patchouli essential oil SPME sample; response by one or more of the insects; FIG. 2
Procedure: The following procedures were employed to test the EAD response of an insect antenna to a repellent compound. The GC-EAD technique provides an efficient tool for screening behaviorally active repellents. Several synthetic mixtures of potential insect repellent candidates, mostly sesquiterpene hydrocarbons and derivatives, were analyzed in splitless mode using a Varian CP-3800 GC equipped with a polar column (Innowax; 1.0 μm film thickness, 30 m×0.53 mm ID; J & W Scientific), and a 1:1 effluent splitter that allowed simultaneous flame ionization detection (FID) and EAD of the separated volatile compounds. Helium was used as the carrier gas, and the injector temperature was 220° C. The column temperature was 50° C. for 2 min, rising to 240° C. at 10° C./min, then held for 10 min. The outlet for the EAD was held in a humidified air stream flowing at 0.5 liter/min. over an antennal preparation. A glass capillary indifferent electrode filled with Beadle-Ephrussi Ringer, and grounded via a silver wire, was inserted into the severed insect's head with the antennae. A similar recording electrode connected to a high-impedance DC amplifier with automatic baseline drift compensation was placed in contact with the distal end of one antenna (Zhang et al., Chemoecology, 10:69-80 (2000)). The antennal signals were stored and analyzed on a PC equipped with a serial IDAC interface box and the program EAD ver. 2.5 (Syntech, Hilversum, The Netherlands). The compound 1-octen-3-ol (known attractant for many flies and mosquitoes) was included in most of the synthetic mixtures, as a positive control.

[6] = tested on: Phlebotomus papatasi; test: Y-tube olfactometer behavioral bioassay (spatial repellency); format: in vivo
Procedure: as §1

[7] = tested on: Anopheles stephensi; test: as above; format: in vivo
Procedure: as §1

[8] = tested on: Aedes aegypti; test: as above; format: in vivo
Procedure: as §1

[9] = 10 μg/cm^2, DEET values are the positive control run with the chemical
[10] = Phlebotomus papatasi females, release rate per chemical, 10 min
[11] = Anopheles stephensi females, release rate per chemical (β-Caryophyllene 10 mg/day), 10 min
[12] = Aedes aegypti females, release rate per chemical (1-60 mg/day), 10 min

Structure (SMILES): C=CCc1ccc(O)c(OC)c1 [eugenol]
- GC-EAD antennal activity [1]: EAD-inactive (or weakly active)

Structure (SMILES): C=C(C)[C@@H]1CC[C@H](C)C2=C(C1)[C@@H](C)CC2 [α-Guaiene, α-guaiene]
- spatial repellency, in words [2]: showed spatial repellency effects
- % of biting (±SE) (N = 3) [3, 9]: 40 ± 0b %
- % of biting (±SE) (N = 3) ([3]; 100 μg/cm^2): 0 ± 0a %
- % of biting (±SE) (N = 3) ([3]; 500 μg/cm^2): 0 ± 0a %
- % of biting (±SE) (N = 3) ([3]; 1000 μg/cm^2): 0 ± 0a %
- % of biting (±SE) (N = 3) [4, 9]: 33 ± 7b %
- % of biting (±SE) (N = 3) ([4]; 100 μg/cm^2): 0 ± 0a %
- % of biting (±SE) (N = 3) ([4]; 500 μg/cm^2): 0 ± 0a %
- % of biting (±SE) (N = 3) ([4]; 1000 μg/cm^2): 0 ± 0a %
- GC-EAD antennal activity [5]: elicited EAD-activity
- SAI (Spatial Activity Index) ([6]; Phlebotomus papatasi): 0.78
- Number of mosquitoes in each arm: Repellent ([6]; Phlebotomus papatasi (sand fly) females, release rate per chemical (1-35 mg/day), 10 min): 5
- Number of mosquitoes in each arm: Blank [6, 10]: 41
- Number of mosquitoes in each arm: Bottom [6, 10]: 17
- Number of mosquitoes in each arm: Repellent ([7]; Anopheles stephensi females, release rate per chemical (1-60 mg/day; β-Caryophyllene 10 mg/day), 10 min): 6
- Number of mosquitoes in each arm: Blank [7, 11]: 20
- Number of mosquitoes in each arm: Bottom [7, 11]: 40
- SAI (Spatial Activity Index) ([7]; Anopheles stephensi, β-Caryophyllene 10 mg/day): 0.54
- Number of mosquitoes in each arm: Blank [8, 12]: 49
- Number of mosquitoes in each arm: Bottom [8, 12]: 16
- Number of mosquitoes in each arm: Repellent ([8]; Aedes aegypti females, release rate per chemical (1-60 mg/day), 10 min, two replicates pooled): 13
- SAI (Spatial Activity Index) ([8]; Aedes aegypti, (Nc − Nt)/(Nc + Nt), −1 to 1, zero indicating no response): 0.58

Source: patent US8057829B2, “Methods for repelling insects using sesquiterpene hydrocarbons and their derivatives” (Sterling International Inc., priority 2008, dated 2011)
